According to US7435823B2, “Compounds and methods of use” (Amgen Inc., priority 2004, dated 2008):
Where two headings read alike, the source gives them in different places.

Columns and labels:
[1] = tested on: Human Umbilical Vein Endothelial cells; assay: HUVEC proliferation assay, VEGF-stimulated; type: cell-based; conditions: 72 h, read-out: inhibition of VEGF-stimulated HUVEC proliferation
Experimental: HUVEC Proliferation Assay
Human Umbilical Vein Endothelial cells are purchased from Clonetics, Inc., as cryopreserved cells harvested from a pool of donors. These cells, at passage 1, are thawed and expanded in EBM-2 complete medium, until passage 2 or 3. The cells are trypsinized, washed in DMEM+10% FBS+antibiotics, and spun at 1000 rpm for 10 min. Prior to centrifugation of the cells, a small amount is collected for a cell count. After centrifugation, the medium is discarded, and the cells are resuspended in the appropriate volume of DMEM+10% FBS+antibiotics to achieve a concentration of 3×10^5 cells/mL. Another cell count is performed to confirm the cell concentration. The cells are diluted to 3×10^4 cells/mL in DMEM+10% FBS+antibiotics, and 100 μL of cells are added to a 96-well plate. The cells are incubated at 37° C. for 22 h.
Prior to the completion of the incubation period, compound dilutions are prepared. Five-point, five-fold serial dilutions are prepared in DMSO, at concentrations 400-fold greater than the final concentrations desired. 2.5 μL of each compound dilution are diluted further in a total of 1 mL DMEM+10% FBS+antibiotics (400× dilution). Medium containing 0.25% DMSO is also prepared for the 0 μM compound sample. At the 22 h timepoint, the medium is removed from the cells, and 100 μL of each compound dilution is added. The cells are incubated at 37° C. for 2-3 h.
During the compound pre-incubation period, the growth factors are diluted to the appropriate concentrations. Solutions of DMEM+10% FBS+antibiotics, containing either VEGF or bFGF at the following concentrations: 50, 10, 2, 0.4, 0.08, and 0 ng/mL are prepared. For the compound-treated cells, solutions of VEGF at 550 ng/mL or bFGF at 220 ng/mL for 50 ng/mL or 20 ng/mL final concentrations, respectively, are prepared since 10 μL of each will be added to the cells (110 μL final volume). At the appropriate time after adding the compounds, the growth factors are added. VEGF is added to one set of plates, while bFGF is added to another set of plates. For the growth factor control curves, the media on wells B4-G6 of plates 1 and 2 are replaced with media containing VEGF or bFGF at the varying concentrations (50-0 ng/mL). The cells are incubated at 37° C. for an additional 72 h.
At the completion of the 72 h incubation period, the medium is removed, and the cells are washed twice with PBS. After the second wash with PBS, the plates are tapped gently to remove excess PBS, and the cells are placed at −70° C. for at least 30 min. The cells are thawed and analyzed using the CyQuant fluorescent dye (Molecular Probes C-7026), following the manufacturer's recommendations. The plates are read on a Victor/Wallac 1420 workstation at 485 nm/530 nm (excitation/emission). Raw data are collected and analyzed using a 4-parameter fit equation in XLFit. IC50 values are then determined.

[2] = tested on: Human peripheral blood lymphocytes; assay: Human mixed lymphocyte reaction (huMLR); type: cell-based; conditions: 3H-thymidine incorporation, 6 days, read-out: IC50, inhibition of T-cell activation
Experimental: Human Mixed Lymphocyte Reaction (huMLR):
The purpose of this assay is to test the potency of T cell activation inhibitors in an in vitro model of allogeneic T cell stimulation. Human peripheral blood lymphocytes (hPBL; 2×10^5/well) are incubated with mitomycin C-treated B lymphoblastoid cells (JY cell line; 1×10^5/well) as allogeneic stimulators in the presence or absence of dilutions of potential inhibitor compound in 96-well round-bottom tissue culture plates. These cultures are incubated at 37° C. in 5% CO2 for 6 days total. The proliferative response of the hPBL is measured by ^3H-thymidine incorporation overnight between days 5 and 6 after initiation of culture. Cells are harvested onto glass fiber filters and ^3H-thymidine incorporation into DNA is analyzed by liquid scintillation counter.

SMILES | IC50 [2] [nM] | also measured
CCNC(=O)Nc1ccc2c(F)c(Oc3ccnc4cc(OCCCN5CCOCC5)c(OC)cc34)ccc2c1 [Example 111] | – | melting point: 193.5 to 196.4 °C
COc1cc2nccc(Oc3ccc4c(C(=O)Nc5ccc(Cl)cc5)cccc4c3)c2cc1OC [Example 114, 6-(6,7-Dimethoxy-quinolin-4-yloxy)-naphthalene-1-carboxylic acid(4-chloro-phenyl)-amide] | – | IC50 [1]: < 500 nM
COc1cc2nccc(Oc3ccc4c(C(=O)Nc5ccc(C(F)(F)F)cc5)cccc4c3)c2cc1OC [Example 115, 6-(6,7-dimethoxy-quinolin-4-yloxy)-naphthalene-1-carboxylix acid (4-trifluoromethyl-phenyl)-amide] | – | IC50 ([1]; VEGF-stimulated): < 500 nM
COc1cc2nccc(Oc3ccc4c(C(=O)Nc5cccc(C(F)(F)F)c5)cccc4c3)c2cc1OC [Example 116, 6-(6,7-dimethoxy-quinolin-4-yloxy)-naphthalene-1-carboxylix acid (3-trifluoromethyl-phenyl)-amide] | – | IC50 ([1]; VEGF-stimulated): < 500 nM
COc1cc2nccc(Oc3ccc4c(C(=O)Nc5ccc(Cl)c(C(F)(F)F)c5)cccc4c3)c2cc1OC [Example 117, 6-(6,7-dimethoxy-quinolin-4-yloxy)-naphthalene-1-carboxylix acid (4-chloro-3-trifluoromethyl-phenyl)-amide] | – | IC50 ([1]; VEGF-stimulated): < 500 nM
COc1cc2nccc(Oc3ccc4c(NC(=O)c5ccccc5F)cccc4c3)c2cc1OC [Example 120, N-[6-(6,7-dimethoxy-quinolin-4-yloxy)-naphthalen-1-yl]-2-fluoro-benzamide] | – | IC50 ([1]; VEGF-stimulated): < 500 nM
COc1cc2nccc(Oc3ccc4c(NC(=O)c5ccc(Cl)cc5)cccc4c3)c2cc1OC [Example 121, N-[6-(6,7-Dimethoxy-quinolin-4-yloxy)-naphthalen-1-yl]-4-chloro-benzamide] | – | IC50 ([1]; VEGF-stimulated): < 500 nM
COc1cc2nccc(Oc3ccc4c(C(=O)Nc5ncc(C)s5)cccc4c3)c2cc1OC [Example 289, 6-((6,7-bis(methoxy)-4-quinolinyl)oxy)-N-(5-methyl-1,3-thiazol-2-yl)-1-naphthalenecarboxamide] | < 100 | –
COc1cc2c(Oc3ccc4c(C(=O)Nc5cccc(C(F)(F)F)c5)cccc4c3)ccnc2cc1OCCCN1CCOCC1 [Example 314, 6-((6-(methoxy)-7-((3-(4-morpholinyl)propyl)oxy)-4-quinolinyl)oxy)-N-(3-(trifluoromethyl)phenyl)-1-naphthalenecarboxamide] | < 100 | –
COc1cc2c(Oc3ccc4c(C(=O)Nc5cc(C(C)(C)C)[nH]n5)cccc4c3)ccnc2cc1OCCCN1CCOCC1 [Example 325, N-(5-(1,1-dimethylethyl)-1H-pyrazol-3-yl)-6-((6-(methoxy)-7-((3-(4-morpholinyl)propyl)oxy)-4-quinolinyl)oxy)-1-naphthalenecarboxamide] | < 100 | –
COc1ccc(C(C)(C)C)cc1NC(=O)c1cccc2cc(Oc3ccnc4cc(OCCCN5CCOCC5)c(OC)cc34)ccc12 [Example 342, N-(5-(1,1-dimethylethyl)-2-(methoxy)phenyl)-6-((6-(methoxy)-7-((3-(4-morpholinyl)propyl)oxy)-4-quinolinyl)oxy)-1-naphthalenecarboxamide] | < 100 | –
COc1cc2nccc(Oc3ccc4c(C(=O)Nc5cc(C(C)(C)C)on5)cccc4c3F)c2cc1OC [Example 467, 6-((6,7-bis(methoxy)-4-quinolinyl)oxy)-N-(5-(1,1-dimethylethyl)-3-isoxazolyl)-5-fluoro-1-naphthalenecarboxamide] | < 100 | –
COc1cc2nccc(Oc3ccc4c(C(=O)Nc5cc(C(C)(C)C)on5)ccc(C)c4c3)c2cc1OC [Example 541, 6-((6,7-bis(methoxy)-4-quinolinyl)oxy)-N-(5-(1,1-dimethylethyl)-3-isoxazolyl)-4-methyl-1-naphthalenecarboxamide] | < 100 | –
COc1cc2nccc(Oc3ccc4c(C(=O)Nc5cc(C(C)(C)C)on5)cccc4c3)c2cc1OC [Example 583, 6-((6,7-bis(methoxy)-4-quinolinyl)oxy)-N-(5-(1,1-dimethylethyl)-3-isoxazolyl)-1-naphthalenecarboxamide] | < 100 | –
COc1cc2nccc(Oc3ccc4c(C(=O)Nc5cc(C(C)(C)C)[nH]n5)cccc4c3)c2cc1OC [Example 589, 6-((6,7-bis(methoxy)-4-quinolinyl)oxy)-N-(5-(1,1-dimethylethyl)-1H-pyrazol-3-yl)-1-naphthalenecarboxamide] | < 100 | –
COc1cc2c(Oc3ccc4c(C(=O)Nc5cc(C(C)(C)C)on5)cccc4c3F)ccnc2cc1OCCCN1CCOCC1 [Example 611, N-(5-(1,1-dimethylethyl)-3-isoxazolyl)-5-fluoro-6-((6-(methoxy)-7-((3-(4-morpholinyl)propyl)oxy)-4-quinolinyl)oxy)-1-naphthalenecarboxamide] | < 100 | –
COc1cc2nccc(Oc3ccc4c(C(=O)Nc5cc(C(F)(F)F)ccn5)cccc4c3)c2cc1OC [Example 657, 6-((6,7-bis(methoxy)-4-quinolinyl)oxy)-N-(4-(trifluoromethyl)-2-pyridinyl)-1-naphthalenecarboxamide] | < 100 | –
COc1cc2c(Oc3ccc4c(C(=O)Nc5cc(C(C)(C)C)on5)cccc4c3)ncnc2cc1OCCCN1CCCCC1 [Example 732, N-(5-(1,1-dimethylethyl)-3-isoxazolyl)-6-((6-(methoxy)-7-((3-(1-piperidinyl)propyl)oxy)-4-quinazolinyl)oxy)-1-naphthalenecarboxamide] | < 100 | –
COc1cc2c(Oc3ccc4c(C(=O)Nc5ccc(Cl)cc5)cccc4c3F)ccnc2cc1OCCCN1CCOCC1 [Example 816] | < 100 | –
